Counter-ions that a name gives are not always drawn.
Molecular target: ASK1 (Homo sapiens (Human), UniProt Q99683)
Experiment: Human ASK1 ADP-Glo kinase assay
Type: biochemical
Conditions: recombinant ASK1 (amino acids 649-946), 50 μM ATP, MBP substrate
Description: Example B-1: Human ASK1 ADP-Glo Assay
The ability of test compounds to inhibit ASK1 kinase activity was determined using the luminescent ADP-Glo™ Kinase Assay and Myelin Basic Protein (MBP) as a substrate (Promega Corporation, Madison, Wis.). During the kinase reaction, ASK1 utilizes ATP and generates ADP. The remaining ATP is then depleted by addition of the ADP-Glo™ reagent which also terminates the reaction. Subsequent addition of the Kinase Detection Reagent converts the ADP that was produced during the kinase reaction to ATP, and this newly synthesized ATP is converted to light using the luciferase/luciferin reactions. The assay was performed according to the manufacturer's instructions. Briefly, purified, recombinant ASK1 (amino acids 649-946) (10-20 ng/well) was added to a 384-well, F bottom, small volume, HIbase, white plate (Greiner Bio-One, Monroe, N.C. #784075) containing 1-2 μL 5× test compound or vehicle control (diluted 1:20 from a 100% DMSO stock solution into 1× Reaction Buffer A). The enzyme was allowed to pre-incubate with test compound from 15-120 min at 30° C. before the addition of the ATP/substrate mix (final concentrations of 50 μM ATP+250 ng MBP in 1× Reaction Buffer A). The mixture was then incubated at room temperature for 40 min before the addition of ADP-Glo™ reagent and a second 40 minute room temperature incubation. Following the addition of the Kinase Detection Reagent, the plate was incubated for an additional 40 min at room temperature before reading luminescence on a FlexStation 3 (Molecular Devices, Sunnyvale, Calif.). Maximum activity was determined from wells treated with vehicle and was set to 100% and minimum activity was determined from wells containing no enzyme and this was set to 0%. Percent inhibition was calculated relative to the controls and the data graphed in Collaborative Drug Discovery (CDD) Vault (Burlingame, Calif.).

Chain of ASK1 (Q99683 649-946): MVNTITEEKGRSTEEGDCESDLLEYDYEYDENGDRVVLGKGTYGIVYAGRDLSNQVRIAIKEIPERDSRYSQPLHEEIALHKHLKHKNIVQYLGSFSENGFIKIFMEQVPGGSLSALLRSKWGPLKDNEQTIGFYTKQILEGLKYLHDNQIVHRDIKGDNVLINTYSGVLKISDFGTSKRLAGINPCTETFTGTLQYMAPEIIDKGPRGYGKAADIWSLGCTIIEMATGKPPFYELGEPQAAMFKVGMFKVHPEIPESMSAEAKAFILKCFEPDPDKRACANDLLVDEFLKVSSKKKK

IC50 [nM] | SMILES
< 300 | CC(C)n1cnnc1-c1cccc(NC(=O)c2cc(Oc3cccc(C4CC4)n3)ccc2F)n1 [Compound 1-213, 5-((6-Cyclopropylpyridin-2-yl)oxy)-2-fluoro-N-(6-(4-isopropyl-4H-1,2,4-triazol-3-yl)pyridin-2-yl)benzamide trifluoroacetate]
< 300 | CC(C)n1cnnc1-c1cccc(NC(=O)c2cc(NC(=O)c3cncnc3)ccc2F)n1 [Compound 1-313, N-(4-Fluoro-3-((6-(4-isopropyl-4H-1,2,4-triazol-3-yl)pyridin-2-yl)carbamoyl)phenyl)pyrimidine-5-carboxamide hydrochloride]
< 300 | O=C(Nc1ccc(F)c(C(=O)Nc2cccc(-c3nncn3C(CF)CF)n2)c1)c1ccccc1 [Compound 1-340, 5-Benzamido-N-(6-(4-(1,3-difluoropropan-2-yl)-4H-1,2,4-triazol-3-yl)pyridin-2-yl)-2-fluorobenzamide hydrochloride]
< 300 | CC(C)n1cnnc1-c1cccc(NC(=O)c2cc(NC(=O)c3ccc(C(=O)O)cc3)ccc2F)n1 [Compound 1-335, 4-((4-Fluoro-3-((6-(4-isopropyl-4H-1,2,4-triazol-3-yl)pyridin-2-yl)carbamoyl)phenyl)carbamoyl)benzoic acid sodium salt]
< 300 | CC(C)n1cnnc1-c1cccc(NC(=O)c2cc(NC(=O)c3ccc(Br)cn3)ccc2F)n1 [Compound 1-311, 5-Bromo-N-(4-fluoro-3-((6-(4-isopropyl-4H-1,2,4-triazol-3-yl)pyridin-2-yl)carbamoyl)phenyl)picolinamide hydrochloride]
< 300 | CC(C)n1cnnc1-c1cccc(NC(=O)c2cc(Oc3ccncn3)ccc2F)n1 [Compound 1-217, 2-Fluoro-N-(6-(4-isopropyl-4H-1,2,4-triazol-3-yl)pyridin-2-yl)-5-(pyrimidin-4-yloxy)benzamide hydrochloride]
< 300 | CC(C)n1cnnc1-c1cccc(NC(=O)c2cc(NC(=O)c3cc(CN)ccn3)ccc2F)n1 [Compound 1-332, 4-(Aminomethyl)-N-(4-fluoro-3-((6-(4-isopropyl-4H-1,2,4-triazol-3-yl)pyridin-2-yl)carbamoyl)phenyl)picolinamide hydrochloride]
< 300 | C[C@H](CO)n1cnnc1-c1cccc(NC(=O)c2cc(NC(=O)c3ccccc3)ccc2F)n1 [Compound 1-341, (R)-5-Benzamido-2-fluoro-N-(6-(4-(1-hydroxypropan-2-yl)-4H-1,2,4-triazol-3-yl)pyridin-2-yl)benzamide]
< 300 | CC(C)n1cnnc1-c1cccc(NC(=O)c2cccc(OCc3ccccc3)c2)n1 [Compound 1-179, 3-(Benzyloxy)-N-(6-(4-isopropyl-4H-1,2,4-triazol-3-yl)pyridin-2-yl)benzamide]
300 to 1000 | CC(C)n1cnnc1-c1cccc(NC(=O)c2cccc(Oc3cc(C(=O)O)cc(C(F)(F)F)n3)c2)n1 [Compound 1-24, 2-(3-((6-(4-Isopropyl-4H-1,2,4-triazol-3-yl)pyridin-2-yl)carbamoyl)phenoxy)-6-(trifluoromethyl)isonicotinic acid trifluoroacetate]
< 300 | CC(C)n1cnnc1-c1cccc(NC(=O)c2cc(Oc3cccc(Br)n3)ccc2F)n1 [Compound 1-336, 5-((6-Bromopyridin-2-yl)oxy)-2-fluoro-N-(6-(4-isopropyl-4H-1,2,4-triazol-3-yl)pyridin-2-yl)benzamide hydrochloride]
300 to 1000 | CC(C)n1cnnc1-c1cccc(NC(=O)c2cc(Oc3cccc(N4CCCC4)n3)ccc2F)n1 [Compound 1-225, 2-Fluoro-N-(6-(4-isopropyl-4H-1,2,4-triazol-3-yl)pyridin-2-yl)-5-((6-(pyrrolidin-1-yl)pyridin-2-yl)oxy)benzamide hydrochloride]
< 300 | CC(C)n1cnnc1-c1cccc(NC(=O)c2cc(Oc3cccnc3)ccc2F)n1 [Compound 1-211, 2-Fluoro-N-(6-(4-isopropyl-4H-1,2,4-triazol-3-yl)pyridin-2-yl)-5-(pyridin-3-yloxy)benzamide hydrochloride]
< 300 | CC(C)n1cnnc1-c1cccc(NC(=O)c2cc(Oc3ccccn3)ccc2F)n1 [Compound 1-210, 2-Fluoro-N-(6-(4-isopropyl-4H-1,2,4-triazol-3-yl)pyridin-2-yl)-5-(pyridin-2-yloxy)benzamide hydrochloride]
< 300 | CC(C)n1cnnc1-c1cccc(NC(=O)c2cc(NC(=O)c3ccc(F)c(F)c3)ccc2F)n1 [Compound 1-334, 5-(3,4-Difluorobenzamido)-2-fluoro-N-(6-(4-isopropyl-4H-1,2,4-triazol-3-yl)pyridin-2-yl)benzamide hydrochloride]
< 300 | CC(C)n1cnnc1-c1cccc(NC(=O)c2cc(NC(=O)Cc3ccccc3)ccc2F)n1 [Compound 1-333, 2-Fluoro-N-(6-(4-isopropyl-4H-1,2,4-triazol-3-yl)pyridin-2-yl)-5-(2-phenylacetamido)benzamide trifluoroacetate]
< 300 | CC(C)n1cnnc1-c1cccc(NC(=O)c2cc(NC(=O)c3cccnc3)ccc2F)n1 [Compound 1-308, N-(4-Fluoro-3-((6-(4-isopropyl-4H-1,2,4-triazol-3-yl)pyridin-2-yl)carbamoyl)phenyl)nicotinamide hydrochloride]
< 300 | CC(C)n1cnnc1-c1cccc(NC(=O)c2cccc(Oc3cc(C#N)cc(C(F)(F)F)n3)c2)n1 [Compound 1-23, 3-((4-Cyano-6-(trifluoromethyl)pyridin-2-yl)oxy)-N-(6-(4-isopropyl-4H-1,2,4-triazol-3-yl)pyridin-2-yl)benzamide]
< 300 | C[C@H](CO)n1cnnc1-c1cccc(NC(=O)c2cc(NCc3ccc(F)cc3)ccc2F)n1 [Compound 1-343, (R)-2-Fluoro-5-((4-fluorobenzyl)amino)-N-(6-(4-(1-hydroxypropan-2-yl)-4H-1,2,4-triazol-3-yl)pyridin-2-yl)benzamide hydrochloride]
< 300 | CC(C)n1cnnc1-c1cccc(NC(=O)c2cc(Oc3ccc(C4CC4)cn3)ccc2F)n1 [Compound 1-227, 5-((5-Cyclopropylpyridin-2-yl)oxy)-2-fluoro-N-(6-(4-isopropyl-4H-1,2,4-triazol-3-yl)pyridin-2-yl)benzamide hydrochloride]
< 300 | CC(C)n1cnnc1-c1cccc(NC(=O)c2cccc(OCc3cccnc3)c2)n1 [Compound 1-181, N-(6-(4-Isopropyl-4H-1,2,4-triazol-3-yl)pyridin-2-yl)-3-(pyridin-3-ylmethoxy)benzamide hydrochloride]
300 to 1000 | CC(C)(C)OC(=O)NCc1cc(Oc2ccnc(C(=O)Nc3cccc(-c4nncn4C4CC4)n3)c2)nc(C(F)(F)F)c1 [Compound 1-329, tert-Butyl ((2-((2-((6-(4-cyclopropyl-4H-1,2,4-triazol-3-yl)pyridin-2-yl)carbamoyl)pyridin-4-yl)oxy)-6-(trifluoromethyl)pyridin-4-yl)methyl)carbamate]
300 to 1000 | C[C@H](CO)n1cnnc1-c1cccc(NC(=O)c2cc(Nc3ccc(F)cc3)ccc2F)n1 [Compound 1-342, (R)-2-Fluoro-5-((4-fluorophenyl)amino)-N-(6-(4-(1-hydroxypropan-2-yl)-4H-1,2,4-triazol-3-yl)pyridin-2-yl)benzamide]
300 to 1000 | CC(C)n1cnnc1-c1cccc(NC(=O)c2cc(Oc3ccc(Br)cn3)ccc2F)n1 [Compound 1-337, 5-((5-Bromopyridin-2-yl)oxy)-2-fluoro-N-(6-(4-isopropyl-4H-1,2,4-triazol-3-yl)pyridin-2-yl)benzamide hydrochloride]
< 300 | CC(C)n1cnnc1-c1cccc(NC(=O)c2cc(Oc3cccc(C(F)(F)F)n3)ccc2F)c1 [Compound 1-223, 2-Fluoro-N-(3-(4-isopropyl-4H-1,2,4-triazol-3-yl)phenyl)-5-((6-(trifluoromethyl)pyridin-2-yl)oxy)benzamide hydrochloride]
< 300 | CC(C)n1cnnc1-c1cccc(NC(=O)c2cc(NC(=O)c3ccncc3)ccc2F)n1 [Compound 1-309, N-(4-Fluoro-3-((6-(4-isopropyl-4H-1,2,4-triazol-3-yl)pyridin-2-yl)carbamoyl)phenyl)isonicotinamide dihydrochloride]
< 300 | CC(C)n1cnnc1-c1cccc(NC(=O)c2cc(NC(=O)c3ccccn3)ccc2F)n1 [Compound 1-307, N-(4-Fluoro-3-((6-(4-isopropyl-4H-1,2,4-triazol-3-yl)pyridin-2-yl)carbamoyl)phenyl)picolinamide hydrochloride]
< 300 | CC(C)n1cnnc1-c1cccc(NC(=O)c2cc(NC(=O)c3ncccn3)ccc2F)n1 [Compound 1-314, N-(4-Fluoro-3-((6-(4-isopropyl-4H-1,2,4-triazol-3-yl)pyridin-2-yl)carbamoyl)phenyl)pyrimidine-2-carboxamide trifluoroacetate]

SMILES | IC50 [nM]
CC(C)n1cnnc1-c1cccc(NC(=O)c2cc(NC(=O)c3ccccc3)ccc2F)n1 [Compound 1-305, 5-Benzamido-2-fluoro-N-(6-(4-isopropyl-4H-1,2,4-triazol-3-yl)pyridin-2-yl) benzamide hydrochloride] | < 300
